pEC50, pKd, pKi: −log10 of the molar value. Counter-ions that a name gives are not always drawn. Like-named read-outs stand apart in the source and are kept apart here.
Experiments:
[1] = target: T1, human 5-hydroxy-tryptamine2C (h5HT2C) receptor (Homo sapiens, UniProt P28335); assay: 5HT2C Receptor Binding Test Procedure ([125I] DOI)
T1 construct: expressed in transfected cells; host or cells: CHO (Chinese Hamster Ovary) cells; membranes
T1 sequence (P28335 33-458): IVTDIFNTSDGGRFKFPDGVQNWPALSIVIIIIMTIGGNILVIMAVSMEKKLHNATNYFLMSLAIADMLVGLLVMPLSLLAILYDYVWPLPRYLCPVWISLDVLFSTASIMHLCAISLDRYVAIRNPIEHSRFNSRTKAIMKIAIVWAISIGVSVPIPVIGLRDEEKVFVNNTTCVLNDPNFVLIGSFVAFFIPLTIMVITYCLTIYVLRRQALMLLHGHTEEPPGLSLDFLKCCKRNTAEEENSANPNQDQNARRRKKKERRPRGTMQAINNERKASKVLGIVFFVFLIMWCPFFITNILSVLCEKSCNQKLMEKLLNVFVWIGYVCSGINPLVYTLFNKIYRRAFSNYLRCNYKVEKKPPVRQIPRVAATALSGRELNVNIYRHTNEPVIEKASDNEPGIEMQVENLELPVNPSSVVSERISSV

[2] = target: T2, human 5-HT2C receptor (Homo sapiens, UniProt P28335); assay: Stimulation of [3H] Inositol Monophosphate Production by 5HT2C Agonists; assay type: cell-based
T2 construct: expressed in transfected cells; host or cells: CHO cells
T2 sequence (P28335 33-458): T1 sequence (P28335 33-458)
Method: One (1) ml of maintenance medium containing 1 μCi/ml myo-[^3H] inositol was added to each well. After 48 hours labeling, the cells were washed once with 0.5 ml DMEM containing 25 mM HEPES and 10 mM LiCl, then preincubated with the medium for 30 min (antagonists were included in this period if tested). At the end of the preincubation, the medium was removed, the cells were then incubated with test compounds (in presence of antagonists if needed) for 30 min. The reaction was terminated by removal of the incubation solution and addition of 0.5 ml ice-cold 5% PCA, followed by 15 to 30 min incubation on ice. 200 μl of 0.5 M Tes/1.5 M K2CO3 was added to each well to neutralize to pH 7, and plates were left on ice for another 15 to 30 min to precipitate all salts. The liquid and solid phases were separated by centrifugation.
A portion (350 μl) of the upper aqueous phase was applied to Dowex AG-1X8 (formate form, 100-200 mesh) columns. The columns were then washed stepwise with 10 ml of water and 10 ml of 25 mM ammonium formate to remove free myo-[^3H]inositol and deacylated phosphoinositol, respectively. Finally 10 ml of 0.2 M ammonium formate solution was applied to the columns to elute [^3H] inositol monophosphate ([^3H] IP1) directly into scintillation vials. Of this eluate, 1 ml was used to determine radioactivity by scintillation counting.
A 3-parameter logistic function is used to generate estimate of EC50/IC50.

[3] = tested on: food intake in male Sprague-Dawley rats; assay: Effects of Compounds on Feeding Behavior in Rats (food intake, 24 hr fast); assay type: in vivo; settings: Rattus norvegicus, dose giving 50% reduction in food intake
Method: Effects of Compounds on Feeding Behavior in Rats
Eight (8) male Sprague-Dawley rats weighing 150-180 g were separated into individual cages and acclimated to a powdered diet for 2 weeks. During this period and throughout the test procedure, the food cup and the animals were weighed daily. Following the acclimation period, animals were fasted for 24 hours and then injected with either vehicle or one of 4 doses of the test compound. Food intake was assessed at 2 and 24 hours following compound administration. Compounds to be evaluated were injected 1-2× per week until all animals had received all doses of the test compound. The order of doses were chosen using to a modified Latin Square design. Additional studies may be conducted in satiated rats at the start of the dark cycle. Compounds were injected i.p, s.c. or p.o. At the end of the study effects of the test compound on food intake was evaluated using a repeated measures ANOVA. Data were collected were 2 hour food intake (g). Data were subjected to one-way ANOVA with posthoc t-tests to assess group differences. Where appropriate, ED50 values were calculated.

[4] = read-out: 5HT2C % Emax (5HT, 100%)
[5] = CHO cells expressing human 5-HT2C, read-out: Stimulation of IP3 (EC50)
[6] = read-out: 5HT2C Affinity DOI/Agonist binding (Ki), [125I] DOI agonist binding

Row | SMILES | pKi [1] | Emax [2, 4] [%] | pEC50 [2, 5] | pKi [1, 6] | other results
1 | O=C1Nc2ccc(Cl)cc2N2CCNC[C@H]12 (as salt: hydrochloride) [Example 12, (R)-9-Chloro-2,3,4,4a-Tetrahydro-1H-Pyrazino[1,2a]Quinoxalin-5(6H)-One] | – | – | – | – | melting point: 146 to 149 °C
2 | Clc1cc2c(cc1Cl)N1CCNC[C@@H]1CN2 (single isomer, unassigned) [Example 5, dihydrochloride] | 8.15 | 100 | – | – | pEC50 [2]: 7.47
3 | Clc1cc2c(cc1Cl)N1CCNC[C@H]1CN2 (single isomer, unassigned) [Example 6, dihydrochloride] | 8.10 | 77 | – | – | pEC50 [2]: 7.63
4 | O=C1Nc2cc(Cl)c(Cl)cc2N2CCNCC12 (centres unmarked) [Example 1, 8,9-Dichloro-2,3,4,4a-Tetrahydro-1H-Pyrazino[1,2-a]Quinoxalin-5(6H)-One] | 8.36 | 108 | 7.92 | – | ED50 ([3]; ip): 1.91 mg/kg; ED50 ([3]; po): 9.73 mg/kg
5 | O=C1Nc2cc(Cl)c(Cl)cc2N2CCNC[C@H]12 [Example 2, (R)-8,9-Dichloro-2,3,4,4a-Tetrahydro-1H-Pyrazino[1,2-a]Quinoxalin-5(6H)-One] | 8.38 | 112 | 8.10 | – | ED50 ([3]; ip): 1.99 mg/kg
6 | O=C1Nc2cc(Cl)c(Cl)cc2N2CCNC[C@@H]12 [Example 3, (S)-8,9-Dichloro-2,3,4,4a-Tetrahydro-1H-Pyrazino[1,2-a]Quinoxalin-5(6H)-One] | – | 89 | 6.54 | 7.18 | –
7 | Clc1cc2c(cc1Cl)N1CCNCC1CN2 (centres unmarked) [Example 4, 8,9-Dichloro-2,3,4,4a,5,6-Hexahydro-1H-Pyrazino[1,2-a]Quinoxaline, dihydrochloride] | – | 99 | – | 9.00 | pEC50 [2]: 8.14
8 | O=C1Nc2cc(C(F)(F)F)c(Cl)cc2N2CCNCC12 (centres unmarked) [Example 7, 9-Chloro-8-Trifluoromethyl-2,3 4,4a-Tetrahydro-1H-Pyrazino[1,2-a]-Quinoxalin-5(6H)-One, Hydrochloride] | 8.10 | 100 | 7.01 | – | –
9 | O=C1Nc2cc(C(F)(F)F)c(Cl)cc2N2CCNC[C@@H]12 [Example 8, (S)-9-Chloro-8-Trifluoromethyl-2,3,4,4a-Tetrahydro-1H-Pyrazino[1,2-a]-Quinoxalin-5(6H)-One. Hydrochloride] | – | 85 | 5.58 | 6.29 | –
10 | O=C1Nc2cc(C(F)(F)F)c(Cl)cc2N2CCNC[C@H]12 [Example 9, (R)-9-Chloro-8-Trifluoromethyl-2,3,4,4a-Tetrahydro-1H-Pyrazino[1,2-a]-Quinoxalin-5(6H)-One, Hydrochloride] | – | 100 | 7.73 | 7.60 | –
11 | O=C1Nc2ccc(Cl)c(Cl)c2N2CCNCC12 (centres unmarked) [Example 10, 9,10-Dichloro-2,3.4,4a-Tetrahydro-1H-Pyrazino[1,2-a]-Quinoxalin-5(6H)-One, Hydrochloride] | 5.98 | – | – | – | –
12 | Cl.O=C1Nc2c(Cl)cc(Cl)cc2N2CCNCC12 (centres unmarked) [Example 11, 7,9-Dichloro-2,3,4,4A-Tetrahydro-1H-Pyrazino[1,2-a]Quinoxalin-5(6H)-One, Hydrochloride] | – | – | – | 7.70 | Emax ([2]; read-out: 5HT2C % Emax (5HT, 100%) at single concentration): 73%; ED50 ([3]; ip): 9.99 mg/kg
13 | O=C1Nc2ccc(Cl)cc2N2CCNC[C@H]12 [Example 12, (R)-9-Chloro-2,3,4,4a-Tetrahydro-1H-Pyrazino[1,2a]Quinoxalin-5(6H)-One] | 8.05 | 95 | – | – | pEC50 [2]: 7.52
14 | O=C1Nc2cc(F)c(F)cc2N2CCNCC12 (centres unmarked) [Example 13, 8,9-Difluoro-2,3,4,4a-Tetrahydro-1H-Pyrazino[1,2-a]Quinoxalin-5(6H)-One] | – | – | – | 7.04 | –
15 | CSc1ccc2c(c1)C(N1CCN(C)CC1)Cc1ccccc1S2 (centres unmarked) [Methiothepin, reference compound] | – | – | – | – | pKi ([1]; reference compounds, [125I] DOI binding, CHO cell membranes, read-out: Ki value and 95% confidence interval): 8.34
16 | COc1cc(CC(C)N)c(OC)cc1I (centres unmarked) [[^125I] DOI, reference compound] | – | – | – | – | pKd ([1]; read-out: dissociation constant, KD of [125I] DOI at the human serotonin 5HT2C receptor, saturation binding with increasing concentrations of [125I] DOI): 9.40
